Here are results for 2 compounds from patent publication US4826531A (priority 1986, dated 1989).

In experiment [1] the test system is CERCOSPORA ARACHIDICOLA (PEANUT). Nature of the experiment: foliar fungal disease control test (Table III). As to conditions: 100 ppm foliar spray plus root drench ca. 40 ppm a.i./dry soil; 1-2 days before inoculation. Format: in vivo. The method, then: (§1) The compounds were tested against a variety of foliar fungal diseases of plants. The technique employed was as follows.
(§2) The plants were grown in John Innes Potting Compost (No 1 or 2) in 4 cm diameter minipots. The test compounds were formulated either by bead milling with aqueous Dispersol T or as a solution in acetone or acetone/ethanol which was diluted to the required concentration immediately before use. For the foliage diseases, the formulations (100 ppm active ingredient) were sprayed on to the foliage and applied to the roots of the plants in the soil. The sprays were applied to maximum retention and the root drenches to a final concentration equivalent to approximately 40 ppm a.i./dry soil. Tween 20, to give a final concentration of 0.05%, was added when the sprays were applied to cereals.
(§3) For most of the tests the compound was applied to the soil (roots) and to the foliage (by spraying) one or two days before the plant was inoculated with the disease. An exception was the test on Erysiphe graminis in which the plants were inoculated 24 hours before treatment. Foliar pathogens were applied by spray as spore suspensions onto the leaves of test plants. After inoculation, the plants were put into an appropriate environment to allow infection to proceed and then incubated until the disease was ready for assessment. The period between inoculation and assessment varied from four to fourteen days according to the disease and environment.
(§4) The disease control was recorded by the following grading: […]

Experiment [2] relates to ERYSIPHE GRAMINIS (BARLEY). The experiment is described as follows: foliar fungal disease control test (Table III). Format: in vivo. As to conditions: 100 ppm foliar spray plus root drench ca. 40 ppm a.i./dry soil; inoculated 24 hours before treatment. The method, then: as §1, §2, §3, §4
Experiment [3] concerns PUCCINIA RECONDITA (WHEAT). Nature of the experiment: foliar fungal disease control test (Table III). Format: in vivo. The following applies: 100 ppm foliar spray plus root drench ca. 40 ppm a.i./dry soil; 1-2 days before inoculation. On the procedure: as §1, §2, §3, §4
In another experiment the test system is […] (VINE). Nature of the experiment: foliar fungal disease control test (Table III). Format: in vivo, Plasmopara viticola. The following applies: 100 ppm foliar spray plus root drench ca. 40 ppm a.i./dry soil; 1-2 days before inoculation. The method, then:
as §1, §2, §3, §4

The next experiment concerns PH[…] (TOMATO). Format: in vivo, Phytophthora infestans. As to conditions: 100 ppm foliar spray plus root drench ca. 40 ppm a.i./dry soil; 1-2 days before inoculation.
In another experiment the test system is Tomato. The experiment is described as follows: whole plant screen for plant growth regulating activity. Format: in vivo, Tomato (Ailsa Craig). The following applies: 500 ppm. The method, then:
(§5) These compounds were tested on a whole plant screen for plant growth regulating activity against six species of plant. The plant species used in this screen are presented in Table IV with the leaf stage at which they were sprayed.
(§6) A formulation of each chemical was applied at 4000 ppm (4 kg/ha in a 1000 l/ha field volume) using a tracksprayer and a SS8004E (Teejet) nozzle. Additional tests were done on tomatoes at 2000 and 500 ppm.
(§7) After spraying, the plants were grown in a glasshouse with 25° C. day/22° C. night temperatures. The exceptions to this were the temperate cereals wheat and barley, which were grown in 13°-16° C. day/11°-13° C. night temperatures. Supplementary lighting was supplied when necessary to provide an average photoperiod of 16 hours (14 hours minimum).
(§8) After 2-6 weeks in the glasshouse, depending on species and time of year, the plants were visually asessed for morphological characteristics against a control plant sprayed with a blank formulation.

The next experiment concerns […] (RICE). Format: in vivo, Pyricularia oryzae. As to conditions: 100 ppm foliar spray plus root drench ca. 40 ppm a.i./dry soil; 1-2 days before inoculation.
The subject of experiment [4] is VENTURIA INAEQUALS (APPLE). Nature of the experiment: foliar fungal disease control test (Table III). Format: in vivo, Venturia inaequalis. The following applies: 100 ppm foliar spray plus root drench ca. 40 ppm a.i./dry soil; 1-2 days before inoculation. The method, then: as §1, §2, §3, §4
In experiment [5] the test system is Diabrotica balteata (root worm larvae). Nature of the experiment: insecticidal activity.
Another experiment deals with Barley. The experiment is described as follows: whole plant screen for plant growth regulating activity. The following applies: 4000 ppm (4 kg/ha), assessed after 2-6 weeks. Format: in vivo, Barley (Atem). The method, then:
as §5, §6, §7, §8

Regarding `CO/C=C(/C(=O)OC)c1cccnc1Oc1cccc(Cl)c1` [Compound 23], in experiment [1], the “disease control grading, CERCOSPORA ARACHIDICOLA (PEANUT)” value is listed as 4. The “disease control grading, ERYSIPHE GRAMINIS (BARLEY)” value in [2] was 4. Also, the “disease control grading, PUCCINIA RECONDITA (WHEAT)” value in experiment [3] turned out to be 4. In addition, in […] (VINE), the “disease control grading, […] (VINE)” value worked out at 4. For the same compound, the “disease control grading, PH[…] (TOMATO)” value in the experiment on PH[…] (TOMATO) is 4. Also, the “plant growth regulating effect, TO+” value with Tomato is reported as 2G. Also, in experiment […] (RICE), the “disease control grading, […] (RICE)” value stood at 4. Moreover, the “disease control grading, VENTURIA INAEQUALS (APPLE)” value in experiment [4] was 4. Also, the “activity against Diabrotica balteata” value in [5] was “active”.
Consider `CO/C=C(/C(=O)OC)c1ccncc1Oc1ccccc1` [Compound 43, (E)-methyl-2-(3'-phenoxypyrid-4'-yl)-3-methoxyacrylate], for which the “plant growth regulating effect, BR” value in the experiment with Barley was 2T.
